Where a SMILES comes first, the peptide text is derived from it. Bridges are numbered along the chain shown (N, C = ends). [ ]: non-standard residue; d: D form. The star is where a group is joined. 2Nal = N[C@@H](Cc1ccc2ccccc2c1)C(=O)O; Benzoyl(4-F) = O=C(c1ccc(F)cc1)*; Cit = NC(=O)NCCC[C@H](N)C(=O)O
Experiments:
[1] = test system: MV4-11 cells engrafted in NOD SCID gamma (NSG) mice; experiment: AML model of NSG mice engrafted with MV4-11 cells; type: in vivo, mouse; details: AC220 10 mg/Kg oral, daily for 7 days; for AML cells in the BM / percentage of alive AML blasts in the blood / level of AML cells in the spleen: BL-8040 400 ug/mouse SC; for AML cells in the BM: control 12.6%, FIGS. 11A-11B; for percentage of alive AML blasts in the blood: control 13.5%, FIG. 9; for level of AML cells in the spleen: control 21%, FIGS. 12A-12B
Description: In the in-vivo study an AML model of NOD SCID gamma (NSG) mice engrafted with MV4-11 cells was used. […] The survival and apoptosis of AML cells were examined in the blood, BM and spleen of engrafted mice.
Female mice at the age of 7-9 weeks day (−1) 26/1/14: mice were irradiated with 200 rad 24 hr before cells injection day 0-27/1/14: mice were IV injected with 10×10^6 of MV4-11 cells in total volume of 200 ul PBS.

[2] = test system: human primary AML cells with FLT3-ITD; experiment: Survival assay (PI staining, FACS), human primary AML cells with FLT3-ITD; type: cell-based; details: 48 hr; for decrease of the number of viable cells: human
From the text: (§1) Human primary AML cells with FLT3-ITD mutation and with FLT3-WT were obtained from AML patients after getting their consent in accordance with regulations of Chaim Sheba Medical Center (Tel-Aviv, Israel). Peripheral blood mononuclear cells (PBMCs) were separated from blood samples by density-gradient centrifugation on Ficoll-Paque (Pharmacia Biotech, Uppsala, Sweden). The cells were suspended in […] (FCS; Biological Industries, Kibbutz Beit Haemek, Israel), supplement with 10% DMSO then stored in liquid nitrogen. Prior to commencing a toxicity assay the isolated cells were thawed, re-suspended in Roswell Park Memorial Institute medium (RPMI 1640; Gibco BRL life technologies) supplemented with 20% FCS and incubated for 4 hr at 37° C. Isolated cells with FLT3-ITD mutation or with FLT3 wild type (FLT3-WT) were identified by using a procedure essentially as described by Levis and Small (Leukemia 17: 1738-1752, 2003). […] Following incubation the cells were stained with propidium iodide (PI; Sigma, St. Louis, Mo.; 1:1000) and the incidence of dead cells (% PI-positive) and the density of viable cells (PI-negative) were determined by FACScalibur using the procedure described by Beider and Begin (Exp Hematol 39: 282-92, 2011).

[3] = test system: human primary AML cells with wild-type FLT3; experiment: Survival assay (PI staining, FACS), human primary AML cells with FLT3-WT; type: cell-based; details: 48 hr; for decrease of the number of viable cells: human
From the text: as §1

[4] = test system: human AML MV4-11 cells (FLT3-ITD); experiment: Example 2 in-vitro viability and apoptosis by FACS; type: cell-based; details: BL-8040 20 μM, 48 hrs
Description: Methods: The human AML MV4-11 cells (FLT3-ITD) was used. Cells were in-vitro incubated for 48 hrs in the presence of BL-8040 (20 μM), AC220 (50 nM) or their combination. The level of viable cells, percentage of apoptosis was evaluated by FACS.

human AML xenografts = details: subcutaneous injections; Beider et al., Exp. Hematol. 2011; cited from earlier work
[5] = test system: malignant cells of hematopoietic origin including AML; details: cited from earlier work

Structure (SMILES)	reduction of total mouse WBC compared to the control ([1]; FIG. 10) [%]	AML cells in the BM [1] [%]	percentage of alive AML blasts in the blood [1] [%]	level of AML cells in the spleen [1] [%]	increase of the percentage of dead cells ([2]; BL-8040 8 μM, FIG. 1A) [%]	increase of the percentage of dead cells ([2]; BL-8040 20 μM, FIG. 7A) [%]	decrease of the number of viable cells ([2]; 8 μM) [%]	decrease of the number of viable cells ([2]; 20 μM) [%]	increase of the percentage of dead cells ([3]; BL-8040 8 μM, FIG. 2A) [%]	increase of the percentage of dead cells ([3]; BL-8040 20 μM, FIG. 8A) [%]	decrease of the number of viable cells ([3]; 8 μM) [%]	decrease of the number of viable cells ([3]; 20 μM) [%]	inhibition of cell growth [4] [%]	cell death ([4]; AC220 50 nM or their combination) [%]	growth of human AML xenografts (human AML xenografts)	cytotoxicity toward malignant cells of hematopoietic origin [5]
CC(C)(C)c1cc(NC(=O)Nc2ccc(-c3cn4c(n3)sc3cc(OCCN5CCOCC5)ccc34)cc2)no1 [AC220, Quizartinib]	65	0.05	0.1	0.09												
N=C(N)NCCC[C@H](NC(=O)[C@@H]1CSSC[C@H](NC(=O)[C@H](Cc2ccc3ccccc3c2)NC(=O)[C@H](CCCNC(=N)N)NC(=O)[C@H](CCCNC(=N)N)NC(=O)c2ccc(F)cc2)C(=O)N[C@@H](Cc2ccc(O)cc2)C(=O)N[C@@H](CCCNC(N)=O)C(=O)N[C@@H](CCCCN)C(=O)N[C@H](CCCCN)C(=O)N2CCC[C@H]2C(=O)N[C@@H](Cc2ccc(O)cc2)C(=O)N[C@@H](CCCNC(=N)N)C(=O)N[C@@H](CCCNC(N)=O)C(=O)N1)C(N)=O [BL-8040, 4F-benzoyl-Arg-Arg-Nal-Cys-Tyr-Cit-Lys-DLys-Pro-Tyr-Arg-Cit-Cys-Arg-NH2] ({Benzoyl(4-F)}-RR[2Nal]CY[Cit]K[dK]PYR[Cit]CR-NH2; disulfide 4-13)		2.6	1.7	0.4	79.3	116.6	28.8	50.0	13.7	56.3	16.1	34.4	35	40	significantly reduced the growth	CXCR4-dependent preferential cytotoxicity

— patent publication US20190038703A1, “METHODS OF TREATING ACUTE MYELOID LEUKEMIA WITH A FLT3 MUTATION” (Biokine Therapeutics Ltd., priority 2013, published 2019)
